Experiments:
[1] = tested on: Met mutant Drosophila flies; details: cited from earlier work; for resistance to topical application: Met gene mutation
[2] = tested on: JH cytosolic binding protein; details: cited from earlier work
[3] = tested on: GAL4-AhR construct; details: yeast cells; construct constitutively active without ligand; cited from earlier work
[4] = tested on: DNA BD of the glucocorticoid receptor fused to the AhR; details: CHO mammalian cells; cited from earlier work
[5] = tested on: Met^3 flies transformed with genomic fragments; experiment: Methoprene resistance test of progeny of Met^3 transformants (rescue of Met phenotype); format: in vivo, Drosophila; details: three diagnostic amounts of methoprene
Method: P-element mediated germline transformation was carried out with DNA fragments isolated from phage clones derived from a wild-type genomic library. Genomic fragments were isolated following restriction enzyme digestions of phage obtained from the iso-i strain genomic library. (Tamkun et al. Proc. Natl. Acad. Sci. USA 81:5140 (1984)). Fragments were either subcloned into Bluescript (Stratagene Co., Ca.), then excised with an EcoRI-NotI double digest and subcloned into the pCaSpeR 4 transformation vector (Thummel et al. Drosophila Inform. Serv. 71:150 (1992)), or were subcloned directly into the pCaSpeR 4 vector. Purified plasmids together with pp25.1wc transformation “helper” DNA in a ratio of 2-3:1 were injected into dechorionated ywMet^3 embryos as described. (A. Spradling in Drosophila—A Practical Approach (D. B. Roberts, Ed. IRL, Oxford, 1986, page 175). Go progeny were individually crossed with y w Met^3, and transformants recognized by restoration of eye color ranging from light orange to red. For each DNA fragment, 3-5 transformants from separate Go females were recovered and their progeny tested for methoprene resistance.
Progeny of transformants were tested on three diagnostic amounts of methoprene as described in Wilson, Arch. Insect Biochem. Physiol. 32:641 (1996)). […]

[6] = tested on: Drosophila; details: JH analog insecticide; cited from earlier work

In the case of `COC(=O)/C=C(\C)CC/C=C(\C)CC[C@H]1OC1(C)C` [JH III, [R-(E,E)]-9-(3,3-dimethyloxiranyl)-3,7-dimethyl-2,6-nonadienoic acid methyl ester], the “resistance to topical application” value [1] is listed as “resistance”, the “binding to cytosolic juvenile hormone-binding protein” value ([2]; Drosophila melanogaster cytosolic protein) is listed as “saturable, high-affinity binding” and the “lower binding affinity of JH cytosolic binding protein from Met flies than from Met+ flies” value ([2]; Met flies versus Met+ flies) is listed as 10 fold.
For `COC(=O)/C=C(\C)CC[C@@H]1O[C@@]1(C)CC[C@H]1OC1(C)C` [JH bisepoxide], the “resistance to topical application” value [1] is listed as “resistance”.
For `Clc1cc2c(cc1Cl)Oc1cc(Cl)c(Cl)cc1O2` [dioxin], the “transactivation of LacZ reporter gene by GAL4-AhR construct” value [3] is listed as “enhanced transactivation” and the “expression of reporter gene linked to a glucocorticoid response element” value [4] is listed as “induced expression of a reporter gene”.
For `CCOC(=O)NCCOc1ccc(Oc2ccccc2)cc1` [fenoxycarb], the “resistance to topical application” value [1] is given as “resistance”.
For `COC(C)(C)CCC[C@H](C)C/C=C/C(C)=C/C(=O)OC(C)C` [methoprene, [E,E]-1-methoxy-3,7,11-trimethyl-2,4-dodecadienoic acid 1-methylethyl ester], the “level of methoprene resistance compared with Met^3” value ([5]; Met^3 transformants with fragments St-X and K-H) is listed as “undiminished”, the “methoprene resistance after transformation” value ([5]; Met^3 transformed with the 6.234 Kb St-H fragment) is listed as “resistance was lost” and the “resistance to both the toxic and morphogenetic effects” value ([1]; Met mutant versus wild-type flies) is listed as no more than 100 fold. For the same compound, the “resistance to both the toxic and morphogenetic effects conferred by Met^A3 and Met^K17 alleles” value ([1]; P-element alleles Met^A3 and Met^K17) was “conferred resistance” and the “toxicity to Drosophila” value [6] was “high toxicity”.
In the case of `CC(COc1ccc(Oc2ccccc2)cc1)Oc1ccccn1` (stereo not shown) [pyriproxyfen], the “resistance to topical application” value [1] is given as “resistance”.

Source: patent US6887661B1, “Recombinant bHLH-PAS/JHR polypeptide and its use to screen potential insecticides” (American Cyanamid Company, priority 1997, dated 2005)
